Data from US10888548B2, “Anti-dandruff compositions comprising a spirofuranone lactam tetramic acid derivative” (priority 2015, dated 2021).

Test system: Malassezia furfur (ATCC #38593)
Assay: M. furfur efficacy assay (anti-fungal activity, Alamar blue, 96 well plates)
Type: cell-based
Protocol: Malassezia furfur (ATCC #38593) was cultured on Media C agar for 7 d at 37° C. Yeast colonies were then harvested into 0.9% saline sterile diH2O and diluted to approximately 1.5×10^6 CFU/mL using a 0.5 MacFarland standard (Fisher #R20410) to create an assay inoculum. Assay inoculum was added to sterile Media C broth to a final concentration of 4.5×10^4 CFU/mL. Assays were carried out in 96 well plates with a final well volume of 100 μL.
Extract fractions and pure compounds were tested in triplicate against each organism. Extract fractions and pure compounds were resuspended in sterile 20% DMSO.
Each plate contained eight uninoculated positive controls (media+20% DMSO), eight untreated negative controls (Media+20% DMSO+organism), and one column containing a concentration range of a ketoconazole as a control antibiotic. The assay plate was incubated at 37° C. for 5d after which growth within the wells were visualized and photographed with a UVP Biospectrum 500 imaging system. Alamar blue was then added to each well at 10% of the culture volume (11 μL in 100 μL). Fluorescence was monitored using a BioTek Synergy HT plate reader at 530/25 excitation, 590/35 emission and 35 sensitivity at both time zero and 4 hrs after Alamar blue was added. After subtracting the time zero emission 590 nm measurement from the final reading the inferred percentage of microorganism survival relative to vehicle control wells were calculated.
Experimentation was carried out to assess the anti-fungal effect of the produced fumagillin derivative and the pseurotin A each on their own, and in combination against M. furfur in a shampoo type formulation.
Initially the M. furfur efficacy assay was tested with both J&J Baby Shampoo as well as Head & Shoulders to establish a baseline and assess the compatibility of the assay using a shampoo. Compositions of the fumagillin derivative with and without pseurotin A were created and suspended into the baby shampoo. The shampoo mixture was then diluted out into the assay in a similar manner to Head & Shoulders, so that various dilution points in the assay represented multiple sub-inhibitory concentrations of the fumagillin derivative and pseurotin A (concentration combinations are listed in Table 1).

IC50 (active alone, M. furfur, incubated at 37° C. for 5d): 55 µg/mL
MIC (active alone, M. furfur, incubated at 37° C. for 5d, listed as Pseurotin A (sample 1)): 128 µg/mL
MIC (active alone, M. furfur, incubated at 37° C. for 5d, listed as Pseurotin A (sample 2)): 75 µg/mL
SMILES: CC/C=C\[C@H](O)[C@H](O)C1=C(C)C(=O)[C@]2(O1)C(=O)N[C@@](OC)(C(=O)c1ccccc1)[C@@H]2O [Pseurotin A, pseurotin A]
anti-Malassezia activity of isolated pure fractions (fraction 6 and fraction 10 of Peyronellaea sp. RKDO347 extract): demonstrated anti-Malassezia activity
